Measured values reported in patent US20120083471A1, “Novel Compounds, Pharmaceutical Compositions Containing Same, Methods of Use for Same, and Methods for Preparing Same” (priority 2008, published 2012).
Where two headings read alike, the source gives them in different places.

Assays:
[1] = target: T1, mtGPAT1 (Mus musculus, UniProt Q61586); assay: In vitro mtGPAT inhibition: acylation of 14C-glycerol 3-phosphate with palmitoyl-CoA, scintillation counting; format: biochemical
T1 construct: from tissue; host or cells: mitochondrial preparation
T1 sequence (Q61586 1-827): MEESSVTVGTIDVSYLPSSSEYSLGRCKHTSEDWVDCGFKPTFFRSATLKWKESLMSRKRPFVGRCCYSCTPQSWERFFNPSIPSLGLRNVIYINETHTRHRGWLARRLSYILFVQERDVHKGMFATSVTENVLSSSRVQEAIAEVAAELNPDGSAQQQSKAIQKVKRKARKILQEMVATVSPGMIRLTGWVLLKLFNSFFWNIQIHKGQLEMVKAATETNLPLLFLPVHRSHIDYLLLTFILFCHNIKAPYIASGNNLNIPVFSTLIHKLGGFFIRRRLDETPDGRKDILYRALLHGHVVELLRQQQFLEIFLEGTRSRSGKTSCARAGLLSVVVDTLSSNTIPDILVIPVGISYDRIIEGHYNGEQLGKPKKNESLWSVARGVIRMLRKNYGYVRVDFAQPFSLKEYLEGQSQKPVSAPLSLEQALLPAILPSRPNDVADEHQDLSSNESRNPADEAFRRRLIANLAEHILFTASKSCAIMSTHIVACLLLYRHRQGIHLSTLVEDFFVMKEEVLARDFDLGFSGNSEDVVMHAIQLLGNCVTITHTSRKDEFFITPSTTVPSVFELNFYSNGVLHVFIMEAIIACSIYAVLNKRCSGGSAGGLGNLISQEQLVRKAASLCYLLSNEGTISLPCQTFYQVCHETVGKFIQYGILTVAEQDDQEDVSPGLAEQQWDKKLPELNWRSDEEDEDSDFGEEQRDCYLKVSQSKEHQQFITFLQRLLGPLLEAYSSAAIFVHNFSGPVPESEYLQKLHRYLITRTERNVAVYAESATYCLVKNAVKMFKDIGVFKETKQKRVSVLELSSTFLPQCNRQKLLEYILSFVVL
Procedure: The compounds produced as described above were evaluated for their ability to inhibit the acylation of glycerol-3-phosphate in vitro. The acylation reaction between ^14C-labelled glycerol-3-phosphate and palmitoyl-CoA, initiated by adding mtGPAT, was measured in the presence of varying concentrations of the inhibitor by scintillation counting as described in more detail below.
A mitochondrial preparation of glycerol 3-phosphate acyltransferase was added to the incubation mixture containing ^14C-labeled glycerol 3-phosphate, palmitoyl-CoA, and varying inhibitor concentrations to initiate the reaction. After ten min, the reaction was terminated by adding chloroform, methanol, and 1% perchloric acid. Five minutes later, more chloroform and perchloric acid were added, and the upper aqueous layer was removed. After washing three times with 1% perchloric acid, the organic layer was evaporated under nitrogen, and the amount of ^14C present was counted to determine the extent of reaction inhibition. Data points were recorded in triplicate, and IC50 values were calculated based on the amount of test inhibitor necessary to produce 50% of mtGPAT activity observed in the absence of inhibitor but in the presence of DMSO vehicle control.

[2] = system: FAO; assay: FAO (SC 150 and Max) entries of the compound data sheets
[3] = compounds 4a-t and 7a-t, read-out: GPAT IC50
[4] = Table 1, sulfonamides 5a-f and 13a-f, triplicate, read-out: IC50 (μM) ± SD, In Vitro Anti-mtGPAT1 Activity
[5] = Table 2, sulfonamides 15a-i and 17a-f, triplicate, read-out: IC50 (μM) ± SD, In Vitro Anti-mtGPAT1 Activity
[6] = Table 3, sulfonamides 21a-c and 24a-f, triplicate, read-out: IC50 (μM) ± SD, In Vitro Anti-mtGPAT1 Activity

Compound	IC50 [1, 3] [µM]	FAO SC 150 [2]	melting point [°C]	IC50 [1, 4] [µM]	further results
CCCCCCCCS(=O)(=O)Nc1cc(-c2ccccc2Cl)ccc1C(=O)O	23.1	FAS (IC50) Not Tested CPT I Stim Not Tested FAO SC 150 Neg SA/MH (MIC) ug/ml			
CCCCCCCCS(=O)(=O)Nc1cc(-c2ccc(C#N)cc2)ccc1C(=O)O	20	FAS (IC50) Not Tested CPT I Stim Not Tested FAO SC 150 Neg SA/MH (MIC) ug/ml			
CCCCCCCCS(=O)(=O)Nc1cc(-c2cccc(C(C)=O)c2)ccc1C(=O)O	29.2	FAS (IC50) Not Tested CPT I Stim Not Tested FAO SC 150 Neg SA/MH (MIC) ug/ml			
CCCCCCCCS(=O)(=O)Nc1ccc(-c2ccc(C#N)cc2)cc1C(=O)O	24.6	FAS (IC50) Not Tested CPT I Stim Not Tested FAO SC 150 Neg SA/MH (MIC) ug/ml			
CCCCCCCCS(=O)(=O)Nc1ccc(-c2ccc(Cl)cc2Cl)cc1C(=O)O	17.2	FAS (IC50) Not Tested CPT I Stim Not Tested FAO SC 150 Neg SA/MH (MIC) ug/ml			
CCCCCCCCS(=O)(=O)Nc1ccc(-c2ccccc2O)cc1C(=O)O	63.4	FAS (IC50) Not Tested CPT I Stim Not Tested FAO SC 150 Neg SA/MH (MIC) ug/ml			
CCCCCCCCS(=O)(=O)Nc1ccc(-c2ccccc2F)cc1C(=O)O	31.2	FAS (IC50) Not Tested CPT I Stim Not Tested FAO SC 150 Neg SA/MH (MIC) ug/ml			
CCCCCCCCS(=O)(=O)Nc1ccc(-c2cccc(F)c2)cc1C(=O)O	52	FAS (IC50) Not Tested CPT I Stim Not Tested FAO SC 150 Neg SA/MH (MIC) ug/ml			
CCCCCS(=O)(=O)NCc1ccc(C(=O)O)cc1 [Compound 5a, 4-(Pentylsulfonamidomethyl)benzoic acid]			188 to 189	72 ± 1.7	
CCCCCCCCCS(=O)(=O)NCc1ccc(C(=O)O)cc1 [Compound 5b, 4-(Nonylsulfonamidomethyl)benzoic acid]			178 to 180	43.9	
CCCCCS(=O)(=O)NCc1cccc(C(=O)O)c1 [Compound 5c, 3-(Pentylsulfonamidomethyl)benzoic acid]			160 to 161	88.5 ± 1.7	
CCCCCCCCCS(=O)(=O)NCc1cccc(C(=O)O)c1 [Compound 5d, 3-(Nonylsulfonamidomethyl)benzoic acid]			150 to 151	28.5	
CCCCCS(=O)(=O)NCc1ccccc1C(=O)O [Compound 5e, 2-(Pentylsulfonamidomethyl)benzoic acid]			100	61.9 ± 13.5	
CCCCCCCCCS(=O)(=O)NCc1ccccc1C(=O)O [Compound 5f, 2-(Nonylsulfonamidomethyl)benzoic acid]			79 to 82	22.7	
CCCCCS(=O)(=O)Nc1cccc(CP(=O)(O)O)c1 [Compound 13c, 3-(Pentylsulfonamido)benzylphosphonic acid]			127 to 128	45.3 ± 9	
CCCCCCCCCS(=O)(=O)Nc1cccc(CP(=O)(O)O)c1 [Compound 13d, 3-(Nonylsulfonamido)benzylphosphonic acid]			149 to 150	23.7	
CCCCCS(=O)(=O)Nc1ccc(CP(=O)(O)O)cc1 [Compound 13e, 4-(Pentylsulfonamido)benzylphosphonic acid]			198 to 200	47.7 ± 9.6	
CCCCCCCCCS(=O)(=O)Nc1cccc(C(=O)O)c1 [Compound 15d, 3-(Nonylsulfonamido)benzoic acid]			183 to 184		IC50 [1, 5]: 24.2 ± 2.9 µM
O=C(O)c1ccccc1NS(=O)(=O)c1ccccc1 [Compound 15h, 2-(Phenylsulfonamido)benzoic acid]			213 to 215		IC50 [1, 5]: 40.5 ± 2.6 µM
CCCCCCCCCCCCCCS(=O)(=O)Nc1ccccc1C(=O)O [Compound 24b, 2-(Tetradecylsulfonamido)benzoic acid]			120 to 122		IC50 [1, 6]: 6.9 ± 0.5 µM
CCCCCCCCCCCCCCCCS(=O)(=O)Nc1ccccc1C(=O)O [Compound 24c, 2-(Hexadecylsulfonamido)benzoic acid]			126 to 128		IC50 [1, 6]: 7.8 ± 0.8 µM
CCCCCCCCS(=O)(=O)Nc1ccc(O)cc1C(=O)O [Compound 24e, 5-Hydroxy-2-(octylsulfonamido)benzoic acid]			142 to 144		IC50 [1, 6]: 38.2 ± 4.1 µM
CCCCCCCCS(=O)(=O)Nc1ccc(F)cc1C(=O)O [Compound 24f, 5-Fluoro-2-(octylsulfonamido)benzoic acid]			141 to 143		IC50 [1, 6]: 29.5 ± 2.6 µM
